The values below come from ChEMBL document CHEMBL3407452, “Linear and branched alkyl-esters and amides of gallic acid and other (mono-, di- and tri-) hydroxy benzoyl derivatives as promising anti-HCV inhibitors” (Eur J Med Chem, 2015).

Data set [1] concerns Human immunodeficiency virus 1. In words: Antiviral activity against HIV1 3B infected in human CEM cells assessed as reduction in virus-induced cytopathicity after 4 to 5 days by microscopy based syncytium cell formation assay. Format: functional, organism-based, CCRF-CEM. The settings on record: Human immunodeficiency virus 1, 3B, CCRF-CEM; read-out: EC50. On the technique in general: Damage to the host cells serves as the signal in cytopathic effect assays.

Data set [2] in a line: Cytotoxicity against human CEM cells assessed as inhibition of cell proliferation. The settings on record: CEM cells (CCRF-CEM). The class given is cell-based.
Data set [3] relates to Hepatitis C virus. Put plainly: Antiviral activity against HCV genotype 1b I389luc-ubi-neo/NS3-3'/5.1 replicons infected in human Huh5-2 HCV subgenomic replicon-containing cells assessed as reduction in virus replication after 3 days by luciferase reporter gene assay. The class given is functional, Hepacivirus hominis. Conditions: Hepatitis C virus, genotype 1b, Huh-5-2, 72 h; for EC50: read-out: EC50. For orientation: Replicon systems follow genome replication, usually without infectious particles.

Data set [4] is described as follows: Cytotoxicity against human Huh5-2 cells after 72 hrs by MTS assay. The class given is cell-based, Huh-5-2.
Data set [5] relates to Vaccinia virus. Put plainly: Antiviral activity against vaccinia virus. The class given is functional, organism-based. Conditions: Orthopoxvirus vaccinia.
In data set [6] the test system is Vesicular stomatitis virus. In words: Antiviral activity against vesicular stomatitis virus. The class given is functional, organism-based.
Data set [7] concerns Coxsackievirus B4. In words: Antiviral activity against human coxsackievirus B4. Format: functional, organism-based.
Data set [8] has as its system Respiratory syncytial virus. Put plainly: Antiviral activity against RSV. The class given is functional, organism-based.
Data set [9] concerns Human respirovirus 3. Put plainly: Antiviral activity against human parainfluenza virus 3. The class given is functional, organism-based.
In data set [10] the test system is Reovirus sp. Put plainly: Antiviral activity against reovirus. Format: functional, organism-based.
In data set [11] the test system is Sindbis virus. In words: Antiviral activity against sindbis virus. The class given is functional, organism-based.
The subject of data set [12] is Influenza A virus H3N2. In words: Antiviral activity against influenza A virus H3N2. The class given is functional, organism-based.
For data set [13], the system named is Influenza A virus. In words: Antiviral activity against influenza A virus (H1N1). Format: functional, organism-based.
Data set [14] has as its system Punta Toro virus. In words: Antiviral activity against punta toro virus. Format: functional, organism-based.
In data set [15] the test system is Feline coronavirus. In words: Antiviral activity against feline coronavirus. Format: functional, organism-based.
For data set [16], the system named is Felid alphaherpesvirus 1. Put plainly: Antiviral activity against feline herpesvirus. Format: functional, organism-based.
Data set [17] has as its system Chikungunya virus. Put plainly: Antiviral activity against chikungunya virus. The class given is functional.
Data set [18] relates to Human immunodeficiency virus 2. Put plainly: Antiviral activity against HIV2 ROD infected in human CEM cells assessed as reduction in virus-induced cytopathicity after 4 to 5 days by microscopy based syncytium cell formation assay. Format: functional, organism-based, ISOLATE ROD, CCRF-CEM. The settings on record: Human immunodeficiency virus 2, ISOLATE ROD, CCRF-CEM; read-out: EC50.

SMILES strings stand for the structures. Calls of active or inactive are those of the source. The rule behind the calls is not given here.

The EC50 is the concentration giving half of the maximal effect. The term CC50 denotes the concentration at which the toxic effect on the cells reaches its halfway point. Usually EC90 stands for the point of the concentration-response curve where the effect stands at 90%.

As to `O=C(NCCN(CCNC(=O)c1cc(O)c(O)c(O)c1)CCNC(=O)c1cc(O)c(O)c(O)c1)c1cc(O)c(O)c(O)c1`, the EC50 was 10 µM in data set [1] and over 2.9 µM in data set [3]. Moreover, in data set [2], the CC50 was 54 µM. In addition, the EC90 in data set [3] was over 2.9 µM. The CC50 at 72 h in data set [4] was over 2.9 µM. Moreover, the outcome in data set [5], in data set [6], in data set [7], in [8], in [9] and in data set [10] was inactive. Besides, the result in [11], in [12], in [13], in data set [14], in data set [15] and in [16] was inactive. The outcome in data set [17] was inactive.

`O=C(NCCCCCCCCCCNC(=O)c1ccc(O)c(O)c1O)c1ccc(O)c(O)c1O`: the EC50 was over 50 µM in [1], over 50 µM in data set [18] and 11 µM in data set [3]. Also, in data set [2], the CC50 turned out to be 100 µM. This compound also registered a half-maximal cytotoxic concentration (CC50) at 72 h in [4] of over 100 µM. Further, the outcome in data set [5], in data set [6], in data set [7], in data set [8], in data set [9] and in data set [10] was inactive. In addition, the outcome in [11], in [12], in data set [13], in data set [14], in data set [15] and in [16] was inactive. Besides, the result in [17] was inactive.

Regarding `O=C(OCCCCCCCCOC(=O)c1cc(O)c(O)c(O)c1)c1cc(O)c(O)c(O)c1`, the EC50 was over 10 µM in [1], over 10 µM in [18] and 17 µM in data set [3]. Moreover, the half-maximal cytotoxic concentration (CC50) in data set [2] was determined as 13 µM. In addition, the EC90 in data set [3] is 55 µM. In [4], this compound returned a CC50 at 72 h of 80 µM. The result in data set [5], in data set [6], in [7], in data set [8], in data set [9] and in data set [10] was inactive. For the same compound, the result in [11], in data set [12], in [13], in data set [14], in [15] and in [16] was inactive. Moreover, the result in data set [17] was inactive.

As to `COc1ccc(C(=O)NCCCCCCCCCCCCNC(=O)c2ccc(OC)c(OC)c2OC)c(OC)c1OC`, the EC50 in data set [3] is over 3.5 µM. The CC50 at 72 h in [4] is 5.4 µM.

For the compound `O=C(OCCCCCCOC(=O)c1cc(O)c(O)c(O)c1)c1cc(O)c(O)c(O)c1`, the EC50 in [1] is at least 10 µM; in data set [18], at least 10 µM; in [3] it was 16 µM. For the same compound, the CC50 in data set [2] was determined as 22 µM. For the same compound, in [4], the half-maximal cytotoxic concentration (CC50) at 72 h was over 50 µM. Besides, the result in data set [5], in [6], in [7], in data set [8], in [9] and in [10] was inactive. Also, the outcome in data set [11], in data set [12], in data set [13], in data set [14], in [15] and in [16] was inactive. The result in data set [17] was inactive.

For the compound `O=C(NCCCCCCCCNC(=O)c1cc(O)c(O)c(O)c1)c1cc(O)c(O)c(O)c1`, the EC50 is over 10 µM in [1] and 23 µM in [3]. Also, in data set [2], the CC50 stood at 51 µM. Moreover, the EC90 in data set [3] was over 50 µM. The compound further came in with a CC50 at 72 h in [4] of over 50 µM. Also, the result in data set [5], in data set [6], in data set [7], in data set [8], in [9] and in data set [10] was inactive. In addition, the result in [11], in data set [12], in data set [13], in data set [14], in data set [15] and in data set [16] was inactive. Moreover, in data set [17], the result was inactive.

On to `CCC[C@H](NC(=O)[C@@H]1[C@H]2CCC[C@H]2CN1C(=O)[C@@H](NC(=O)[C@@H](NC(=O)c1cnccn1)C1CCCCC1)C(C)(C)C)C(=O)C(=O)NC1CC1` [TELAPREVIR], for which the EC50 in data set [3] worked out at 2.8 µM. The compound also displayed a CC50 at 72 h in data set [4] of 47 µM.

As for `O=C(NCCCCNC(=O)c1ccccc1O)c1ccccc1O`, the EC50 was over 10 µM in data set [1] and 11 µM in [3]. Also, in data set [2], the half-maximal cytotoxic concentration (CC50) came to 35 µM. In [4], this compound had a CC50 at 72 h of over 49 µM. Moreover, the outcome in data set [5], in data set [6], in data set [7], in data set [8], in [9] and in data set [10] was inactive. In addition, the outcome in data set [11], in data set [12], in data set [13], in data set [14], in data set [15] and in data set [16] was inactive. Moreover, the result in [17] was inactive.

Consider `O=C(NCCN(CCNC(=O)c1cc(O)c(O)c(O)c1)C(=O)c1cc(O)c(O)c(O)c1)c1cc(O)c(O)c(O)c1`, for which the EC50 in data set [1] and in [18] was over 10 µM each time. For the same compound, the CC50 in data set [2] amounted to 34 µM. The result in [5], in [6], in [7], in data set [8], in data set [9] and in [10] was inactive. For the same compound, the result in [11], in [12], in data set [13], in data set [14], in data set [15] and in data set [16] was inactive. In addition, the outcome in [17] was inactive.

Consider `O=C(NCCNC(=O)c1cccc(O)c1O)c1cccc(O)c1O`, for which the EC50 in [1] and in data set [18] was over 10 µM in each case. Further, the CC50 in data set [2] is 19 µM. Moreover, the outcome in data set [5], in data set [6], in [7], in [8], in data set [9] and in data set [10] was inactive. For the same compound, the outcome in data set [11], in data set [12], in [13], in data set [14], in [15] and in data set [16] was inactive. Moreover, the outcome in [17] was inactive.

Regarding `CCCCCCCCOC(=O)c1cc(O)c(O)c(O)c1` [OCTYL_GALLATE], the EC50 in data set [1] and in data set [18] was over 2 µM throughout. Also, the CC50 in [2] worked out at 11 µM. The outcome in [5], in data set [6], in [7], in data set [8], in [9] and in data set [10] was inactive. Also, the outcome in data set [11], in data set [12], in data set [13], in [14], in data set [15] and in data set [16] was inactive. Further, the outcome in data set [17] was inactive.

Regarding `O=C(O)c1cc(O)c(O)c(O)c1` [GALLIC ACID], the EC50 in [1] and in [18] was over 50 µM throughout. Moreover, the CC50 in [2] was over 250 µM. Moreover, the outcome in data set [5], in [6], in [7], in data set [8], in data set [9] and in [10] was inactive. In addition, the result in [11], in [12], in data set [13], in data set [14], in data set [15] and in data set [16] was inactive. Besides, in data set [17], the result was inactive.
